{"source": "paper PMC6514670", "about": "“Field-Based Affinity Optimization of a Novel Azabicyclohexane Scaffold HIV-1 Entry Inhibitor” (Molecules, 2019)", "key": {"[1]": {"biological_target": "B41 SOSIP.664 gp140 trimer (Human immunodeficiency virus type 1, UniProt B3UES2, A505C/E513R/I563P/INS515RR/K514R/T609C)", "assay_type": "binding, HIV-1"}, "[2]": {"test_system": "HIV-1JRCSF Env pseudotyped HIV-1", "assay": "Single-round infection assay, JRCSF Env pseudotyped virus", "details": "Human immunodeficiency virus 1, U87/CD4/CCR5, 48 h, read-out: IC50 JRCSF"}, "[3]": {"test_system": "HIV-1B41, HIV-1HxBc2, HIV-1JRCSF, HIV-1JRFL, and HIV-1YU-2 Env pseudotyped HIV-1", "assay": "Single-round infection assay, summary over the five Env pseudotypes", "details": "Human immunodeficiency virus 1, read-out: Median IC50"}, "[4]": {"test_system": "HIV-1YU-2 Env pseudotyped HIV-1", "assay": "Single-round infection assay, YU-2 Env pseudotyped virus", "details": "Human immunodeficiency virus 1, U87/CD4/CCR5, 48 h, read-out: IC50 YU-2"}, "[5]": {"test_system": "U87.CD4.CCR5/CXCR4 cells", "assay": "Cellular toxicity (Cell Counting Kit-8)", "assay_type": "cell-based, Human", "details": "CC50 / median IC50", "protocol": "(§1) The viability of the U87.CD4.CCR5/CXCR4 cells was determined using the Cell Counting Kit-8 cell proliferation and cytotoxicity assay (Dojindo Molecular Technologies, Rockville, MD, USA) per the manufacturer’s instructions. U87.CD4.CCR5/CXCR4 cells (1.2 × 10^4 cells/well) were seeded in 96-well tissue culture plates (Olympus Plastics, San Diego, CA, USA). After 24 h, cells were treated with compound (0.1–1000 µM) or DMSO (Sigma) for 48 h at 37 °C. Subsequently, 10 µL of the CCK-8 solution was added to each well and incubated for 4 h at 37 °C. Following the 4 h incubation, the absorbance at 450 nm was measured in a Multiskan™ GO Microplate Spectrophotometer (Thermo Scientific). Untreated cells were used as a background control and 0.1% SDS treated cells were used as a positive control."}, "[6]": {"assay": "Cellular toxicity (Cell Counting Kit-8)", "assay_type": "cell-based, Human", "details": "human, U87.CD4.CCR5/CXCR4 cells; 48 h, CCK-8, 0.1–1000 µM", "protocol": "as §1"}, "[7]": {"test_system": "HIV-1JRFL Env pseudotyped HIV-1", "assay": "Single-round infection assay, JRFL Env pseudotyped virus", "details": "Human immunodeficiency virus 1, U87/CD4/CCR5, 48 h, read-out: IC50 JRFL"}, "[8]": {"test_system": "HIV-1HxBc2 Env pseudotyped HIV-1", "assay": "Single-round infection assay, HxBc2 Env pseudotyped virus", "details": "Human immunodeficiency virus 1, U87.CD4.CXCR4, 48 h, read-out: IC50 HxBc2"}, "[9]": {"test_system": "HIV-1B41 Env pseudotyped HIV-1", "assay": "Single-round infection assay, B41 Env pseudotyped virus", "details": "Human immunodeficiency virus 1, U87/CD4/CCR5, 48 h, read-out: IC50 B41"}}, "data": [{"smiles": "COc1cnc(-n2cnc(C)n2)c2[nH]cc(C(=O)C(=O)N3CC4CN(C(=O)c5ccccc5)CC4C3)c12", "note": "(stereo not shown) [SC11]", "values": [{"measurement": "ka", "setting": "[1]", "value": "3.83 ± 1.12 × 10^3 M^−1s^−1"}, {"measurement": "kd", "setting": "[1]", "value": "5.02 ± 2.67 × 10^−4 s^−1"}]}, {"smiles": "COc1cnc(-n2cnc(C)n2)c2[nH]cc(C(=O)C(=O)N3CC(CCC(=O)c4ccccc4)C3)c12", "note": "[SC15]", "values": [{"measurement": "ka", "setting": "[1]", "value": "3.01 ± 0.188 × 10^5 M^−1s^−1"}, {"measurement": "kd", "setting": "[1]", "value": "5.44 ± 0.677 × 10^−3 s^−1"}]}, {"smiles": "COc1cnc(-n2cnc(C)n2)c2[nH]cc(C(=O)C(=O)NC3C4CN(C(=O)c5ccccc5)CC43)c12", "note": "(stereo not shown) [SC28]", "values": [{"measurement": "IC50", "setting": "[2]", "value": "26 ± 9", "unit": "nM"}, {"measurement": "IC50", "setting": "[3]", "value": "150 ± 170", "unit": "nM"}, {"measurement": "IC50", "setting": "[4]", "value": "480 ± 50", "unit": "nM"}, {"measurement": "Therapeutic Index (CC50/IC50)", "setting": "[5]", "value": 1291.21}, {"measurement": "CC50 at 48 h", "setting": "[6]", "value": "190000 ± 54000", "unit": "nM"}, {"measurement": "IC50", "setting": "[7]", "value": "170 ± 50", "unit": "nM"}, {"measurement": "IC50", "setting": "[8]", "value": "21 ± 5", "unit": "nM"}, {"measurement": "IC50", "setting": "[9]", "value": "35 ± 6.2", "unit": "nM"}, {"measurement": "ka", "setting": "[1]", "value": "1.39 ± 0.14 × 10^4 M^−1s^−1"}, {"measurement": "kd", "setting": "[1]", "value": "6.99 ± 0.43 × 10^−3 s^−1"}]}, {"smiles": "COc1cnc(-n2cnc(C)n2)c2[nH]cc(C(=O)C(=O)N3CC=C(CNC(=O)c4ccccc4)CC3)c12", "note": "[SC45]", "values": [{"measurement": "ka", "setting": "[1]", "value": "1.38 ± 0.045 × 10^4 M^−1s^−1"}, {"measurement": "kd", "setting": "[1]", "value": "1.52 ± 0.0294 × 10^−2 s^−1"}]}, {"smiles": "CNC(=O)c1ncc(OC)c2c(C(=O)C(=O)NC3C4CN(C(=O)c5ccccc5)CC43)c[nH]c12", "note": "(stereo not shown) [SC49]", "values": [{"measurement": "IC50", "setting": "[3]", "value": "45000 ± 15000", "unit": "nM"}, {"measurement": "IC50", "setting": "[4]", "value": "57200 ± 26500", "unit": "nM"}, {"measurement": "Therapeutic Index (CC50/IC50)", "setting": "[5]", "value": 7.31}, {"measurement": "CC50 at 48 h", "setting": "[6]", "value": "326000 ± 81000", "unit": "nM"}, {"measurement": "IC50", "setting": "[7]", "value": "33300 ± 11600", "unit": "nM"}, {"measurement": "IC50", "setting": "[8]", "value": "62000 ± 1400", "unit": "nM"}, {"measurement": "IC50", "setting": "[9]", "value": "26000 ± 19000", "unit": "nM"}, {"measurement": "ka", "setting": "[1]", "value": "9.49 ± 1.6 × 10^2 M^−1s^−1"}, {"measurement": "kd", "setting": "[1]", "value": "3.43 ± 0.36 × 10^−2 s^−1"}]}, {"smiles": "O=C(NC1C2CN(C(=O)c3ccccc3)CC21)C(=O)c1c[nH]c2c(-c3cccnc3)ncc(F)c12", "note": "(stereo not shown) [SC50]", "values": [{"measurement": "IC50", "setting": "[2]", "value": "28900 ± 5620", "unit": "nM"}, {"measurement": "IC50", "setting": "[3]", "value": "18000 ± 9000", "unit": "nM"}, {"measurement": "IC50", "setting": "[4]", "value": "22600 ± 4200", "unit": "nM"}, {"measurement": "Therapeutic Index (CC50/IC50)", "setting": "[5]", "value": 6.63}, {"measurement": "CC50 at 48 h", "setting": "[6]", "value": "120000 ± 18000", "unit": "nM"}, {"measurement": "IC50", "setting": "[7]", "value": "24300 ± 6200", "unit": "nM"}, {"measurement": "IC50", "setting": "[8]", "value": "6900 ± 5200", "unit": "nM"}, {"measurement": "IC50", "setting": "[9]", "value": "7100 ± 4200", "unit": "nM"}]}, {"smiles": "C=C(C(=O)NC1C2CN(C(=O)c3ccccc3)CC21)n1ccc2c(-n3cnc(C)n3)nc3ccnn3c21", "note": "(stereo not shown) [SC52, N-(3-benzoyl-3-azabicyclo[3.1.0]hexan-6-yl)-2-(5-(3-methyl-1H-1,2,4-triazol-1-yl)-8H-pyrazolo[1,5-a]pyrrolo[3,2-e]pyrimidin-8-yl)acrylamide]", "values": [{"measurement": "IC50", "setting": "[2]", "value": "2020 ± 250", "unit": "nM"}, {"measurement": "IC50", "setting": "[3]", "value": "1060 ± 668", "unit": "nM"}, {"measurement": "IC50", "setting": "[4]", "value": "1350 ± 440", "unit": "nM"}, {"measurement": "Therapeutic Index (CC50/IC50)", "setting": "[5]", "value": 8.65}, {"measurement": "CC50 at 48 h", "setting": "[6]", "value": "9200 ± 1100", "unit": "nM"}, {"measurement": "IC50", "setting": "[8]", "value": "440 ± 170", "unit": "nM"}, {"measurement": "IC50", "setting": "[9]", "value": "430 ± 100", "unit": "nM"}]}, {"smiles": "Nc1nc(-c2ccc(F)c3c(C(=O)C(=O)NC4C5CN(C(=O)c6ccccc6)CC54)c[nH]c23)no1", "note": "(stereo not shown) [SC55, 2-(7-(5-amino-1,2,4-oxadiazol-3-yl)-4-fluoro-1H-indol-3-yl)-N-(3-benzoyl-3-azabicyclo[3.1.0]hexan-6-yl)-2-oxoacetamide]", "values": [{"measurement": "IC50", "setting": "[2]", "value": "450 ± 350", "unit": "nM"}, {"measurement": "IC50", "setting": "[3]", "value": "960 ± 590", "unit": "nM"}, {"measurement": "IC50", "setting": "[4]", "value": "1150 ± 810", "unit": "nM"}, {"measurement": "Therapeutic Index (CC50/IC50)", "setting": "[5]", "value": 75.85}, {"measurement": "CC50 at 48 h", "setting": "[6]", "value": "73000 ± 14000", "unit": "nM"}, {"measurement": "IC50", "setting": "[7]", "value": "450 ± 330", "unit": "nM"}, {"measurement": "IC50", "setting": "[8]", "value": "730 ± 560", "unit": "nM"}, {"measurement": "IC50", "setting": "[9]", "value": "2020 ± 810", "unit": "nM"}]}, {"smiles": "COc1ccc(-c2noc(N)n2)c2[nH]cc(C(=O)C(=O)NC3C4CN(C(=O)c5ccccc5)CC43)c12", "note": "(stereo not shown) [SC56, 2-(7-(5-Amino-1,2,4-oxadiazol-3-yl)-4-methoxy-1H-indol-3-yl)-N-(3-benzoyl-3-azabicyclo[3.1.0]hexan-6-yl)-2-oxoacetamide]", "values": [{"measurement": "IC50", "setting": "[2]", "value": "46 ± 9", "unit": "nM"}, {"measurement": "IC50", "setting": "[3]", "value": "69.8 ± 45", "unit": "nM"}, {"measurement": "IC50", "setting": "[4]", "value": "110 ± 49", "unit": "nM"}, {"measurement": "Therapeutic Index (CC50/IC50)", "setting": "[5]", "value": 1344.71}, {"measurement": "CC50 at 48 h", "setting": "[6]", "value": "94000 ± 10000", "unit": "nM"}, {"measurement": "IC50", "setting": "[7]", "value": "130 ± 15", "unit": "nM"}, {"measurement": "IC50", "setting": "[8]", "value": "11 ± 3", "unit": "nM"}, {"measurement": "IC50", "setting": "[9]", "value": "51 ± 8", "unit": "nM"}, {"measurement": "improvement in KD (affinity) in comparison to parental SC28", "setting": "[1]", "value": 1000, "unit": "fold"}, {"measurement": "ka", "setting": "[1]", "value": "1.22 ± 0.067 × 10^7 M^−1s^−1"}, {"measurement": "kd", "setting": "[1]", "value": "6.39 ± 0.31 × 10^−3 s^−1"}, {"measurement": "SPR surface saturation", "setting": "[1]; 12.5 µM and 6.25 µM, 13000 RUs trimer immobilized, theoretical Rmax 41 RUs", "value": "saturate the surface"}, {"measurement": "increase of ka parameter in comparison to SC28", "setting": "[1]; SPR", "value": 1000, "unit": "factor"}]}]}
